Patent US9884040B2, “Desethylamiodarone for use in cancer treatment” (PÉCSI TUDOMÁNYEGYETEM, priority 2015, dated 2018)

How the values were obtained:
[1] = system: A549 (human lung adenocarcinoma epithelial) cells; assay: MTT cell viability assay, A549; format: cell-based; details: increasing concentrations, 24 and 48 h
Procedure: (§1) The cells were seeded into 96-well plates at a starting density of 10^4 cells per well and cultured overnight before DEA was added to the medium for 24 h and 48 h. The medium was changed to a fresh one containing 0.5% of 3-[4,5-dimethylthiazol-2-yl]-2,5-diphenyl-tetrazolium bromide (MTT+) for an additional 3 hours, then the MTT+ reaction was terminated by adding HCl to 10 mM final concentration. The amount of blue formazan dye formed from MTT+ was proportional to the number of live cells, and was determined with an Anthos Labtech 2010 ELISA reader at 550 nm. All experiments were run in at least 4 replicates and repeated 3 times.
(§2) The effect of desethylamiodarone was measured in T24 (human urinary bladder carcinoma), A549 (human lung adenocarcinoma epithelial), B16F10 (mice melanoma), HeLa (human cervix adenocarcinoma), 4T1 (mouse mammary carcinoma) cell lines. Cells were treated with increasing concentrations of desethylamiodarone for 24 and 48 h. Cell growth was assessed by measuring metabolic activity, which reflects viability in the MTT-test in the course of 24 h, 48 h of continued exposure to desethylamiorarone. The untreated cells served as negative controls. The viability of the cells, was lower in all DEA-treated than in the control group, with the difference being statistically significant.

[2] = system: HeLa human cervix adenocarcinoma cell line; assay: Radiotherapy plus DEA, colony formation, HeLa; format: cell-based; details: 1Gy or 2Gy single dose alone or with 500 nM-3 μM DEA
Procedure: Cells were trypsinized and plated in triplicate into 6-well plates at 500 cells/well. Cells were treated with different concentration of DEA and irradiated with a dose of 1.0 and 2.0 Grays. A telecobalt (Therathron 780 C) external irradiation equipment (average photon energy of 1.25 MeV) will be applied for irradiating cells. After 7 days of incubation, cells were washed and stained with Coomassie-blue, and the colonies containing more than 50 cells were counted. The number of colonies were determined and normalized to the number of colonies in controls.
To examine the effects of a DEA on the effectiveness of radiotherapy the cells were treated with 1Gy or 2Gy single dose irradiation alone or combined with 500 nM-3 μM DEA.
The cells were treated with 1Gy or 2Gy single dose irradiation alone or combined with 500 nM-3 μM DEA. Untreated cells served as controls. The results are mean±SEM of 3 independent experiments performed in at least quadruplicate. p<0.05, compared to the corresponding control group.

[3] = cited from earlier work
[4] = system: HeLa (human cervix adenocarcinoma) cells; assay: MTT cell viability assay, HeLa; format: cell-based; details: increasing concentrations, 24 and 48 h
Procedure: as §1, §2

[5] = system: p42/44 mitogen-activated protein kinase (MAPK) (ERK1/2); assay: Western blot of ERK phosphorylation; format: cell-based, human; details: 5-10-15 μM, 6 hours; T24, B16F10 cell lines
Procedure: 10^6 cells were seeded into regular plates and treated as for the cell viability assay. Cells were harvested at intervals in a chilled lysis buffer containing 0.5 mM sodium-metavanadate, 1 mM ethylenediaminetetraacetic acid (EDTA) and protease inhibitor cocktail in phosphate-buffered saline (PBS). Probes were boiled and subjected to 10% sodium dodecyl sulphate polyacrylamide gel electrophoresis then transferred to nitrocellulose membranes. The membranes were blocked in 5% low fat milk for 1.5 h at room temperature then exposed to primary antibodies at 4° C. overnight in blocking solution. Appropriate horseradish peroxidase-conjugated secondary antibodies were used at a 1:5000 dilution (anti-mouse and anti-rabbit IgGs; Sigma-Aldrich, Steinheim, Germany) and visualized by enhanced chemiluminescence (Amersham Biosciences, Piscataway, N.J., USA). All experiments were repeated 3 times.
To determine the downstream consequences of DEA treatment, we examined the phosphorylation status of AKT (protein kinase B), GSK-3β and p42/44 mitogen-activated protein kinase (MAPK) (ERK1/2) by immunoblotting in T24 (human urinary bladder carcinoma), B16F10 (mice melanoma) cell lines. Cells were cultured in the presence of 5-10-15 μM DEA for 6 hours. The cells were prepared and western blot analysis was carried out to perform both phosphorylated and non-phosphorylated forms of the previously listed proteins. […]

For `CCCCc1oc2ccccc2c1C(=O)c1cc(I)c(OCCNCC)c(I)c1` [DEA, (2-butyl-3-benzofuranyl)[4-[2-(ethylamino)ethoxy]-3,5-diiodophenyl]-methanone], the “Viability of A549 cells (MTT)” value [1] is given as “significantly inhibited the viability”, the “Radiosensitization, colony formation, HeLa” value [2] is given as “sensitize cervix cancer to irradiation” and the “Concentration in patient plasma” value ([3]; after amiodarone in therapeutic doses) is given as 1700 to 4500 nM. For the same compound, the Mean elimination half-life ([3]; in vivo) was 40 days, the “Viability of HeLa cells (MTT)” value [4] was “significantly inhibited the viability” and the ERK phosphorylation [5] was “a decrease in its phosphorylation”.
